Laboratory results: patent publication US10947229B2, “Dimethyl amino azetidine amides as JAK inhibitors” (THERAVANCE BIOPHARMA R&D IP, LLC, priority 2018, dated 2021)

Assays:
Type in all cases: cell-based
[1] = test system: IFNγ stimulated STAT1 phosphorylation in CD14+ monocytes; test: Cellular JAK potency assay: inhibition of IFNγ-induced pSTAT1; conditions: Monocyte; CD14+ monocytes from human whole blood; read-out: pIC50, inhibition of IFNγ-induced pSTAT1 (converted)
Description: The potency of test compounds for inhibition of interferon gamma (IFNγ) stimulated STAT1 phosphorylation was measured in CD14-positive (CD14+) monocytes derived from human whole blood (Stanford Blood Center) using flow cytometry. Because IFNγ signals through JAK, this assay provides a measure of JAK cellular potency. Monocytes were identified using a fluorescein isothiocyanate (FITC) conjugated anti-CD14 antibody (Clone RM052, Beckman Coulter), and an Alexa Fluor 647 conjugated anti-pSTAT1 antibody ([…], Clone 4a, BD Biosciences) was used to detect STAT1 phosphorylation. Human peripheral blood mononuclear cells (PBMC) were isolated from human whole blood of healthy donors using a ficoll gradient. […] Cells were washed twice with FACS buffer, and then re-suspended in 1:10 anti-pSTAT1 Alexa Fluor 647:FACS buffer (100 μL) for 30 min at RT in the dark, washed twice in FACS buffer, and analyzed using a MACSQuant flow cytometer (Miltenyi). To determine the inhibitory potency of the test compound, the median fluorescent intensity (MFI) of pSTAT1 was measured in CD14+ monocytes. IC50 values were determined from analysis of the inhibition curves of MFI vs compound concentration. Data are expressed as pIC50 (negative decadic logarithm IC50) values.

[2] = test system: GM-CSF stimulated STAT5 phosphorylation in CD14+ monocytes; test: Cellular JAK potency assay: inhibition of GM-CSF-induced pSTAT5; conditions: Monocyte; CD14+ monocytes from human whole blood; read-out: pIC50, inhibition of GM-CSF-induced pSTAT5 (converted)
Description: The potency of test compounds for inhibition of granulocyte-macropage colony-stimulating factor (GM-CSF) stimulated STAT5 phosphorylation was measured in CD14-positive (CD14+) monocytes derived from human whole blood (Stanford Blood Center) using flow cytometry. Because GM-CSF signals through JAK, this assay provides a measure of JAK cellular potency. Monocytes were identified using a fluorescein isothiocyanate (FITC) conjugated anti-CD14 antibody (Clone RM052, Beckman Coulter), and an Alexa Fluor 647 conjugated anti-pSTAT5 antibody (pY694, BD Biosciences) was used to detect STAT5 phosphorylation. Human peripheral blood mononuclear cells (PBMC) were isolated from human whole blood of healthy donors using a ficoll gradient. […] Cells were washed twice with FACS buffer, and then re-suspended in 1:10 […] Alexa Fluor 647:FACS buffer (100 μL) for 30 min at RT in the dark, washed twice in FACS buffer, and analyzed using a MACSQuant flow cytometer (Miltenyi). To determine the inhibitory potency of the test compound, the median fluorescent intensity (MFI) of pSTAT5 was measured in CD14+ monocytes. IC50 values were determined from analysis of the inhibition curves of MFI vs compound concentration. Data are expressed as pIC50 (negative decadic logarithm IC50) values.

[3] = test system: spontaneous periostin secretion; test: Inhibition of spontaneous periostin secretion in human 3D airway cultures from asthmatic donors; conditions: 192 h, 8 days, 3 or 4 donors
Description: EpiAirway tissue cultures were obtained from Mattek (AIR-100). Cells were derived from asthmatic donors that spontaneously secrete periostin, a matricellular protein associated with Th2 mediated asthma (eosinophilic), and interleukin-6 (IL-6), an inflammatory cytokine that plays a role in both Th2 and non-Th2 related asthma. In a cell culture insert, human derived tracheal/bronchial epithelial cells were grown and differentiated on a porous membrane support, allowing an air-liquid interface with warmed culture medium below the cells and a gaseous test atmosphere above. Tissues were cultured in maintenance media ([…]) in a 37° C., 5% CO2 humidified incubator. Four donors were tested. On Day 0, tissue cultures were treated with test compounds in liquid interface at 10 μM, 1 μM and/or 0.1 μM. Compounds were diluted in dimethyl sulfoxide (DMSO, Sigma) to a final concentration of 0.1%. DMSO at 0.1% was used as a vehicle control. Tissue cultures were maintained for 8 days. Media was replaced every 2 days with fresh media containing compounds. On Day 8, supernatants were collected for analysis. […] Data is expressed as % Inhibition+/-standard deviation (±STDV). Percent inhibition was determined by compound inhibitory potency against spontaneous secretion of periostin and IL-6 compared to vehicle treated cells. […]

## CCc1cc(O)ccc1-c1ccc2c(-c3nc4c([nH]3)CN(C(C)C)[C@H](C(=O)N3CC(N(C)C)C3)C4)n[nH]c2c1 [Compound 1, (S)-(3-(dimethylamino)azetidin-1-yl)(2-(6-(2-ethyl-4-hydroxyphenyl)-1H-indazol-3-yl)-5-isopropyl-4,5,6,7-tetrahydro-3H-imidazo[4,5-c]pyridin-6-yl)methanone]
[1]
  IC50: 31.6 nM
[2]
  IC50: 126 nM
[3]; 1 μM
  inhibition at 1 µM: 40%
[3]; 10 μM
  inhibition at 10 µM: 62%
